Literature values, collected in article PMC9710334 (BMJ Open Gastroenterology, 2022).

B1: vantictumab: Wnt pathway inhibitor (antibody, chains of the INN, looked up, V domains shown)
VH: EVQLVESGGGLVQPGGSLRLSCAASGFTFSHYTLSWVRQAPGKGLEWVSVISGDGSYTYYADSVKGRFTISSDNSKNTLYLQMNSLRAEDTAVYYCARNFIKYVFANWGQGTLVTVSS
VL: DIELTQPPSVSVAPGQTARISCSGDNIGSFYVHWYQQKPGQAPVLVIYDKSNRPSGIPERFSGSNSGNTATLTISGTQAEDEADYYCQSYANTLSLVFGGGTKLTVL

What was measured:
patients with PBC = conditions: approximately ref 1 3; cited from earlier work
treated patients = treated patients ref 37 38; cited from earlier work

| Molecule | patients without an optimal biochemical response (patients with PBC) | risk for fragility fractures (treated patients) |
| --- | --- | --- |
| C[C@H](CCC(=O)O)[C@H]1CC[C@H]2[C@@H]3[C@@H](O)C[C@@H]4C[C@H](O)CC[C@]4(C)[C@H]3CC[C@]12C [UDCA, ursodeoxycholic acid] | 30%–40% | – |
| B1 | – | increased risk for fragility fractures |
